Experimental data from article PMC7017409 (ACS Omega, 2020).

Molecular target: T1, electric eel AChE (eeAChE) (Electrophorus electricus, UniProt O42275)
T1 construct: purchased type VI-S
Assay: biochemical
Format: biochemical
Experimental: A UV–vis spectrophotometry-based assay was conducted to calculate the IC50 values for the diastereomeric mixtures (Table 6), according to Ellman et al.[37] and Mohamed et al.[38]
All of these solutions were prepared freshly directly before the assay was run. In 96-well plates, 160 μL of the 1.5 mM DTNB solution was first added, followed by 10 μL of different concentrations of test compounds. Then, a 0.22 U/mL enzyme solution was added (50 μL) and incubated at room temperature for 7 min. The background absorbance was measured at a wavelength of 412 nm on a POLARstar OPTIMA (BMG Labtech) microplate reader. The addition of 30 μL of the 15 mM ATCI solution initiated the enzymatic reaction, and the time elapsed between the beginning of the pipetting and the first measurement (t = 0) was noted and kept consistently at 2 min. Further kinetic measurements were made at different time intervals (t = 1, 2, 3, 4, 5 min) after a short episode of shaking (10 s). Each experiment was carried out in triplicate. Various control incubations containing 10 μL of methanol were run alongside the test compounds on each plate.

T1 sequence (O42275 24-633): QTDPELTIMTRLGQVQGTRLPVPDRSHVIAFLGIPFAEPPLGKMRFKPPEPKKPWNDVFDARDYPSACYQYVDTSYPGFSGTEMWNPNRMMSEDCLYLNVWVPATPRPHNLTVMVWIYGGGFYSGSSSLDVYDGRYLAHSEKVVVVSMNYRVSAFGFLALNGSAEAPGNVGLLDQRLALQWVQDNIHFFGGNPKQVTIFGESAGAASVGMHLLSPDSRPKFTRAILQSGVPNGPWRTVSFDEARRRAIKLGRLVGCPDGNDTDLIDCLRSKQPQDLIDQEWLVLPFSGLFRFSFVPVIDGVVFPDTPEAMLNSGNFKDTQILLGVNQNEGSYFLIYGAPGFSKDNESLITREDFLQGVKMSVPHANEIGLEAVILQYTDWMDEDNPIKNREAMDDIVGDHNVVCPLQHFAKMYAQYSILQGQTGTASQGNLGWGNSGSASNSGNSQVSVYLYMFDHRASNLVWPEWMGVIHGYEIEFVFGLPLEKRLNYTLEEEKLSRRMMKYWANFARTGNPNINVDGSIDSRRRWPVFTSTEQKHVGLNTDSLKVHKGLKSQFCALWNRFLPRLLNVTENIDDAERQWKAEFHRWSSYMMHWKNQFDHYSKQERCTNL

Row | SMILES | IC50 | times more active than the 2R,4S-anti-substituted analogues 4 + 4′c (IC50 ratio) (eeAChE IC50, syn versus anti) | times less active than donepezil 1 (IC50 ratio) (eeAChE IC50 compared with donepezil 1)
1 | COc1cc2c(cc1OC)C(=O)C(C[C@@H]1CCN([C@@H](C)c3ccccc3)[C@H](C)C1)C2 (stereo partly drawn) [2R,4R-4+4’d, R-5,6-Dimethoxy-2-((2R,4R-2-methyl-1-(S-1-phenylethyl)piperidin-4-yl)-methyl)-2,3-dihydro-1H-inden-1-one (4d) and S-5,6-Dimethoxy-2-((2R,4R-2-methyl-1-(S-1-phenylethyl)piperidin-4-yl)-methyl)-2,3-dihydro-1H-inden-1-one (4′d)] | 13.1 ± 0.47 µM | – | –
2 | COc1cc2c(cc1OC)C(=O)C(C[C@H]1CCN([C@@H](C)c3ccccc3)[C@@H](C)C1)C2 (stereo partly drawn) [2S,4S-4+4’a, R-5,6-Dimethoxy-2-((2S,4S-2-methyl-1-(S-1-phenylethyl)piperidin-4-yl)-methyl)-2,3-dihydro-1H-inden-1-one (4a) and y-5,6-Dimethoxy-2-((2S,4S-2-methyl-1-(S-1-phenylethyl)piperidin-4-yl)-methyl)-2,3-dihydro-1H-inden-1-one (4′a)] | 1.01 ± 0.03 µM | approximately 24 times | –
3 | COc1cc2c(cc1OC)C(=O)C(CC1CCN([C@@H](C)c3ccccc3)CC1)C2 (stereo partly shown) [19+19’, R-5,6-Dimethoxy-2-((1-(S-1-phenylethyl)piperidin-4-yl)methyl)-2,3-dihydro-1H-inden-1-one (19) and S-5,6-Dimethoxy-2-((1-(S-1-phenylethyl)piperidin-4-yl)methyl)-2,3-dihydro-1H-inden-1-one (19′)] | 1.83 ± 0.04 µM | – | approximately 27 times
4 | COc1cc2c(cc1OC)C(=O)C(C[C@@H]1CCN([C@@H](C)c3ccccc3)[C@@H](C)C1)C2 (stereo partly drawn) [2S,4R-4+4’b, R-5,6-Dimethoxy-2-((2S,4R-2-methyl-1-(S-1-phenylethyl)piperidin-4-yl)-methyl)-2,3-dihydro-1H-inden-1-one (4b) and S-5,6-Dimethoxy-2-((2S,4R-2-methyl-1-(S-1-phenylethyl)piperidin-4-yl)-methyl)-2,3-dihydro-1H-inden-1-one (4′b)] | 8.82 ± 0.21 µM | – | –
5 | COc1cc2c(cc1OC)C(=O)C(C[C@H]1CCN([C@@H](C)c3ccccc3)[C@H](C)C1)C2 (stereo partly drawn) [2R,4S-4+4’c, R-5,6-Dimethoxy-2-((2R,4S-2-methyl-1-(S-1-phenylethyl)piperidin-4-yl)-methyl)-2,3-dihydro-1H-inden-1-one (4c) and S-5,6-Dimethoxy-2-((2R,4S-2-methyl-1-(S-1-phenylethyl)piperidin-4-yl)-methyl)-2,3-dihydro-1H-inden-1-one (4′c)] | 24.3 ± 1.32 µM | – | –
